From patent US20030152577A1, “Dye-bioconjugates for simultaneous optical diagnostic and therapeutic applications” (MALLINCKRODT INC., priority 2002, published 2003)

Key:
Design in all cases: species or system male Lewis rats
[1] = test system: DSL 6/A (pancreatic) tumor; experiment: Non-invasive in vivo fluorescence imaging of DSL 6/A tumor in rats; conditions: 0.5 ml of 0.42 mg/ml in saline, tail vein, images at 2 and 30 minutes post administration
Text: (§1) A non-invasive in vivo fluorescence imaging apparatus was employed to assess the efficacy of indocyanine green (ICG) in three different rat tumor cell lines of the inventive contrast agents developed for tumor detection in animal models. A LaserMax Inc. laser diode of nominal wavelength 780 nm and nominal power of 40 mW was used. The detector was a Princeton Instruments model RTE/CCD-1317-K/2 CCD camera with a Rodenstock 10 mm F2 lens (stock #542.032.002.20) attached. An 830 nm interference lens (CVI Laser Corp., part # F10-830-4-2) was mounted in front of the CCD input lens, such that only emitted fluorescent light from the contrast agent was imaged.
(§2) Three tumor cell lines, DSL 6/A (pancreatic), Dunning R3327-H (prostate), and CA20948 (pancreatic), which are rich in somatostatin (SST-2) receptors were induced into male Lewis rats by solid implant technique in the left flank area (Achilefu et al., Invest Radiology, 2000, pp. 479-485). Palpable masses were detected nine days post implant.

[2] = test system: Dunning R3327-H (prostate) tumor; experiment: Non-invasive in vivo fluorescence imaging of Dunning R3327-H tumor in rats; conditions: 0.5 ml of 0.42 mg/ml in saline, tail vein, images at 2 and 30 minutes post administration
Text: as §1, §2

[3] = test system: CA20948 (pancreatic) tumor, rich in somatostatin (SST-2) receptors; experiment: Non-invasive in vivo fluorescence imaging of CA20948 tumor bearing rat
Text: as §1, §2
The peptide, octreotate, is known to target somatostatin (SST-2) receptors. Therefore, the cyano-octreotates conjugate, Cytate 1, was prepared as described in Example 4. The pancreatic acinar carcinoma, CA20948, was induced into male Lewis rats as described in Example 9.
Using the CCD camera apparatus, dye localization in the tumor was observed. […]

CC1(C)C(/C=C/C=C/C=C/C=C2\N(CCCCS(=O)(=O)O)c3ccc4ccccc4c3C2(C)C)=[N+](CCCCS(=O)(=O)[O-])c2ccc3ccccc3c21 [ICG, indocyanine green]
perfusion of the agent into the tumor [1]: slow perfusion of the agent into the tumor over time
perfusion of the agent into the tumor [2]: slow perfusion of the agent into the tumor over time
perfusion of the agent into the tumor ([3]; 0.5 ml of 0.42 mg/ml in saline, tail vein, images at 2 and 30 minutes post administration): only a slight and transient perfusion that was cleared after only 30 minutes post injection
non-specific localization into the tumor line ([3]; compared to the other two lines): no non-specific localization
